Assay [1] deals with CATIE Caucasian schizophrenia patients. The assay can be described thus: CATIE Phase 1 drug response: change in total PANSS (LOCF), drug switchers, segmented by SULT4A1-1 status. The format is in vivo, human. Particulars: for ≦−20% (number of individuals with this percent change in total PANSS; responders) / ≧−20% (number of individuals with this percent change in total PANSS; non-responders): CATIE Caucasians, LOCF; for Non Responder (number) / Responder (number): Table 16, 20% decrease in PANSS threshold, SULT4A1-1 positive group (sign not given). The source says: There are several different metrics for quantifying response in clinical trials of antipsychotic medications. The most commonly used psychometric instrument is the Positive and Negative Syndrome Scale (PANSS), a 30-item semi-quantitative instrument scored by clinical professionals (Kay et al., 1987). The greater the decrease in PANSS score, the better the clinical response. The most direct measure of clinical response is absolute change in PANSS score. In addition to absolute change, the improvement is often reported as a percentage change from baseline PANSS score.
A decrease of at least 20% in total PANSS is one commonly used threshold for response (Leucht et al., 2009).
The design of the CATIE study has been described in detail by others (Lieberman et al., 2005; Stroup et al., 2003). […] A total of 738 subjects consented to provide DNA for genetic study. […] Retrospective genetic analyses, judged to be exempt from human studies requirements by an IRB, were conducted in the current study.
All tested patients were studied using well established clinical endpoints comparing baseline, intermediate, and last observation carried forward (LOCF) for the PANSS scores using CATIE data. LOCF analysis is a commonly used clinical endpoint for clinical trials for neuropsychiatric drugs, with changes in PANSS scores of between negative 20% and negative 30% used as typical endpoints to indicate clinically significant response (Leucht et al., 2009). To remove time on drug as a variable for the CATIE trial, analysis was limited to only those patients who were randomized to a different drug following the initial washout period (drug switchers).
As mentioned previously, the mean change in absolute or percent PANSS provides an important measure of efficacy in patients undergoing antipsychotic treatments. Indeed, many pivotal trials in the psychosis field used absolute and/or percentage change in PANSS Score as the primary endpoint (Leucht et al., 2009). […] Therefore, in addition to examining a categorical definition of clinically significant response, the inventors determined the impact of segmentation by SULT4A1-1 status on the quantitative measure of clinical improvement—delta PANSS.

Assay [2] deals with CATIE African American schizophrenia patients. Kind of assay: CATIE drug response: change in total PANSS (LOCF), segmented by SULT4A1-1 status, African Americans. The class given is in vivo, human. How it is done: The design of the CATIE study has been described in detail by others (Lieberman et al., 2005; Stroup et al., 2003). […] A total of 738 subjects consented to provide DNA for genetic study. […] Retrospective genetic analyses, judged to be exempt from human studies requirements by an IRB, were conducted in the current study. All tested patients were studied using well established clinical endpoints comparing baseline, intermediate, and last observation carried forward (LOCF) for the PANSS scores using CATIE data. […] To remove time on drug as a variable for the CATIE trial, analysis was limited to only those patients who were randomized to a different drug following the initial washout period (drug switchers).

Assay [3] concerns CATIE Caucasian schizophrenia patients. Kind of assay: Time to discontinuation for all causes in the CATIE study. The format is in vivo, human. The source says:
The primary endpoint for the CATIE study was time to discontinuation for all causes (Lieberman et al., 2005). Thus the inventors evaluated the effect of SULT41-1 status on this important parameter.

A further assay has as its system CATIE Caucasian subjects. The assay can be described thus: Rate of hospitalization due to exacerbation of psychosis in CATIE by SULT4A1-1 status. The format is in vivo, human. Particulars: CATIE Phases 1, 2 and/or 3. The text has this: For this analysis, the inventors assigned a dichotomous value (positive or negative) for hospitalization status to subjects in each phase of the trial based on only the first hospitalization event for a given patient in that phase.

The test system of a further assay is CATIE patients. The assay can be described thus: Kaplan-Meier survival (no hospitalization event) analysis, SULT4A1-1 negative vs positive. The note with it: FIG. 8. The class given is in vivo, human. How it is done: A Kaplan-Meier survival analysis was performed to determine whether there was a difference between the survival (hospitalization) rates for the SULT4A1-1 negative and SULT4A1-1 positive patient populations treated with each of the atypical antipsychotics. Survival plots model the fraction of the population that survived (i.e., no hospitalization event) as a function of time.

The subject of assay [4] is CATIE Phase I non-responders. Particulars: CATIE Phase II, LOCF; for Responders (number): decrease PANSS ≧ 20%.
Assay [5] has as its system patients, populations not segmented by SULT4A1-1 status. Particulars: meta-analysis, Leucht et al. (2009); negative = greater reduction in PANSS; cited from earlier work.
For assay [6], the system named is patients, unsegmented populations. The note with it: first generation antipsychotics; Davis et al. (2003); cited from earlier work.
For assay [7] the test system is unchanged. The note with it: Meta-analysis, Leucht et al. (2009); cited from earlier work.

These results are taken from patent US7972793B2, “Methods and compositions for the treatment of psychotic disorders through the identification of the SULT4A1-1 haplotype” (Suregene, LLC, priority 2009, dated 2011).

Like-named read-outs stand apart in the source and are kept apart here. Marks after values point to notes of the source that are not given here.

For the compound `OCCN1CCN(CCCN2c3ccccc3Sc3ccc(Cl)cc32)CC1` [Perphenazine], the “≦−20% (number of individuals with this percent change in total PANSS; responders)” value in [1] (SULT4A1-1 Negative) was determined as 16; in assay [1] (SULT4A1-1 Positive) it was 5. For the same compound, the “≧−20% (number of individuals with this percent change in total PANSS; non-responders)” value in [1] (SULT4A1-1 Negative) is on record as 47; in assay [1] (SULT4A1-1 Positive), 9. In [1], the “Non Responder (number)” value is reported as 9. Also, the “Responder (number)” value in [1] was 5. The entries for the “≦−20% (number of individuals; responders)” value in [2] (SULT4A1-1 Negative) and in [2] (SULT4A1-1 Positive) were 10 and 0, respectively. Besides, the “≧−20% (number of individuals; non-responders)” value worked out at 27 in assay [2] (SULT4A1-1 Negative) and 2 in assay [2] (SULT4A1-1 Positive). In assay [3] (SULT4A1-1 Positive), the “Time to discontinuation, mean time in months” value (from here on “Time to discontinuation”) is listed as 7.6** Months. For the same compound, the “HOSP (number of subjects hospitalized)” value was found to be 1 in the assay on CATIE Caucasian subjects (SULT4A1-1 Positive), 9 in the assay with CATIE Caucasian subjects (SULT4A1-1 negative) and 10 with CATIE Caucasian subjects (Unsegmented).
For `Cc1nc2n(c(=O)c1CCN1CCC(c3noc4cc(F)ccc34)CC1)CCCC2` [Risperidone], the “≦−20% (number of individuals; responders)” value in [2] (SULT4A1-1 Negative) stood at 7; in [2] (SULT4A1-1 Positive), 3. Also, the “≧−20% (number of individuals; non-responders)” value in assay [2] (SULT4A1-1 Negative) is given as 34; in assay [2] (SULT4A1-1 Positive), 2. In addition, the Responders in [2] (SULT4A1-1 Positive, change in total PANSS ≦−20%) came out at 60%. For the same compound, the “Time to discontinuation” value in assay [3] (SULT4A1-1 Negative) is reported as 11.3 Months; in [3] (SULT4A1-1 Positive), 8.0*** Months. Besides, the “HOSP (number of subjects hospitalized)” value was 4 with CATIE Caucasian subjects (SULT4A1-1 Positive), 16 in the assay on CATIE Caucasian subjects (SULT4A1-1 negative) and 20 in the assay with CATIE Caucasian subjects (Unsegmented). Further, the “HOSP (rate of hospitalization)” value in the assay on CATIE Caucasian subjects (SULT4A1-1 Positive) is on record as “(11.1%)”; with CATIE Caucasian subjects (SULT4A1-1 negative) it was “(13%)”; with CATIE Caucasian subjects (Unsegmented), “(12.6%)”. In addition, the “Difference between survival (no hospitalization) rates of SULT4A1-1 negative and SULT4A1-1 positive patients” value with CATIE patients is on record as “not statistically significant”. Also, the “Nonresponders (number)” value was determined as 8 in assay [4] (SULT4A1-1 Negative) and 1 in assay [4] (SULT4A1-1 Positive). In addition, the figures for the “Responders (number)” value in [4] (SULT4A1-1 Negative) and in assay [4] (SULT4A1-1 Positive) were 4 and 0, respectively. Moreover, in [4] (SULT4A1-1 Positive), the “% Responders” value was 0%. In assay [5], the “Effect Size vs. Placebo” value is −0.59. Besides, the “Effect Size vs. FGA” value in assay [6] is listed as −0.25. Also, the “Mean Difference in Total PANSS Score, Olanzapine vs. labelled drug” value in assay [7] is listed as −1.9.
On to `O=C1Cc2cc(CCN3CCN(c4nsc5ccccc45)CC3)c(Cl)cc2N1` [Ziprasidone], for which the “Mean Difference in Total PANSS Score, Olanzapine vs. labelled drug” value is −2.1 in [1] (CATIE SULT4A1-1 −), −4.9 in assay [1] (CATIE unsegmented) and −8.3 in assay [7]. Besides, the “≦−20% (number of individuals with this percent change in total PANSS; responders)” value worked out at 6 in assay [1] (SULT4A1-1 Negative) and 3 in assay [1] (SULT4A1-1 Positive). For the same compound, the “≧−20% (number of individuals with this percent change in total PANSS; non-responders)” value in [1] (SULT4A1-1 Negative) was 32; in [1] (SULT4A1-1 Positive), 7. In addition, the “Non Responder (number)” value in assay [1] was 7. Moreover, the “Responder (number)” value in [1] worked out at 3. The “≦−20% (number of individuals; responders)” value worked out at 4 in [2] (SULT4A1-1 Negative) and 0 in assay [2] (SULT4A1-1 Positive). In addition, the entries for the “≧−20% (number of individuals; non-responders)” value in assay [2] (SULT4A1-1 Negative) and in assay [2] (SULT4A1-1 Positive) were 22 and 3, respectively. Besides, in assay [3] (SULT4A1-1 Negative), the “Time to discontinuation” value is recorded as 8.2*** Months. For the same compound, the “HOSP (number of subjects hospitalized)” value in the assay on CATIE Caucasian subjects (SULT4A1-1 Positive) was determined as 2; with CATIE Caucasian subjects (SULT4A1-1 negative), 11; with CATIE Caucasian subjects (Unsegmented), 13. Further, in the assay with CATIE patients, the “Difference between survival (no hospitalization) rates of SULT4A1-1 negative and SULT4A1-1 positive patients” value is “not statistically significant”. Besides, the “Effect Size vs. Placebo” value in assay [5] is on record as −0.48. For the same compound, in assay [6], the “Effect Size vs. FGA” value is −0.04.
